From patent US10544141B2, “Derivatives and methods of treating hepatitis B infections” (Novira Therapeutics, Inc., priority 2014, dated 2020) come the findings set out here.

In one experiment the test system is HBV. The experiment can be described thus: HBV replication inhibition assay (BDNA assay) in HepG2.2.15 cells. The experiment is classed as cell-based. The following applies: 6 days treatment, encapsidated HBV DNA in supernatant by branched DNA QuantiGene assay. The source says:
HBV replication inhibition by the compounds of this invention could be determined in cells infected or transfected with HBV, or cells with stably integrated HBV, such as HepG2.2.15 cells (Sells et al. 1987). In this example, HepG2.2.15 cells were maintained in cell culture medium containing 10% fetal bovine serum (FBS), Geneticin, L-glutamine, penicillin and streptomycin. HepG2.2.15 cells could be seeded in 96-well plates at a density of 40,000 cells/well and be treated with serially diluted compounds at a final DMSO concentration of 0.5% either alone or in combination by adding drugs in a checker box format. Cells were incubated with compounds for three days, after which medium was removed and fresh medium containing compounds was added to cells and incubated for another three days. At day 6, supernatant was removed and treated with DNase at 37° C. for 60 minutes, followed by enzyme inactivation at 75° C. for 15 minutes. Encapsidated HBV DNA was released from the virions and covalently linked HBV polymerase by incubating in lysis buffer (Affymetrix QS0010) containing 2.5 μg proteinase K at 50° C. for 40 minutes. HBV DNA was denatured by addition of 0.2 M NaOH and detected using a branched DNA (BDNA) QuantiGene assay kit according to manufacturer recommendation (Affymetrix). HBV DNA levels could also be quantified using qPCR, based on amplification of encapsidated HBV DNA extraction with QuickExtraction Solution (Epicentre Biotechnologies) and amplification of HBV DNA using HBV specific PCR probes that can hybridize to HBV DNA and a fluorescently labeled probe for quantitation. In addition, cell viability of HepG2.2.15 cells incubated with test compounds alone or in combination was determined by using CellTitre-Glo reagent according to the manufacturer protocol (Promega). The mean background signal from wells containing only culture medium was subtracted from all other samples, and percent inhibition at each compound concentration was calculated by normalizing to signals from HepG2.2.15 cells treated with 0.5% DMSO using equation E1. % inhibition=(DMSOave−Xi)/DMSOave×100% E1: where DMSOave is the mean signal calculated from the wells that were treated with DMSO control (0% inhibition control) and Xi is the signal measured from the individual wells. EC50 values, effective concentrations that achieved 50% inhibitory effect, were determined by non-linear fitting using Graphpad Prism software (San Diego, Calif.) and equation E2 Y=Y min+(Y max−Y min)/(1+10(Log EC50−X)×HillSlope) E2: […]
where Y represents percent inhibition values and X represents the logarithm of compound concentrations.
Selected compounds of the invention were assayed in the HBV replication assay (BDNA assay), as described above and a representative group of these active compounds is shown in Table 3. […] In Table 3, “A” represents 0.01<EC50<0.10; “B” represents 0.10≤EC50<0.50; and “C” represents 0.50≤EC50<1.0; (‘+’ indicates >50% activity at 10 μM).
The term EC50 denotes the concentration at which the effect is half-maximal. Take `C[C@H]1Cc2[nH]nc(C3CCCO3)c2CN1C(=O)Nc1ccc(F)c(Br)c1` (single isomer, unassigned) [967 D1]: the EC50 was 10 to 100 nM.

As for `C[C@H]1Cc2[nH]nc(C3CCCO3)c2CN1C(=O)Nc1ccc(F)c(Br)c1` (single isomer, unassigned) [967 D2], the EC50 was in the range of 100 to 500 nM. For the compound `CC(C)(O)c1n[nH]c2c1CN(C(=O)Nc1cccc(Cl)c1)CC2` [Compound 238], the “HBV replication inhibition >50% at 10 μM (qualitative flag)” value (“HBV replication inhibition >50% at 10 μM” for short) is given as “+ (‘+’ indicates >50% activity at 10 μM)”.

Turning to `O=C(Nc1cccc(Cl)c1)N1CCc2[nH]nc(O)c2C1` [Compound 241, N-(3-chlorophenyl)-3-hydroxy-1,4,6,7-tetrahydropyrazolo[4,3-c] pyridine-5-carboxamide], the “HBV replication inhibition >50% at 10 μM” value is listed as “+ (‘+’ indicates >50% activity at 10 μM)”.

As to `O=C(Nc1cccc(Cl)c1)N1CCc2[nH]nc(Br)c2C1` [Compound 260], the “HBV replication inhibition >50% at 10 μM” value is given as “+ (‘+’ indicates >50% activity at 10 μM)”. On to `CC(CO)c1n[nH]c2c1CN(C(=O)Nc1cccc(Cl)c1)CC2` (stereo not drawn) [Compound 388, N-(3-chlorophenyl)-3-(2-hydroxy-1-methyl-ethyl)-1,4,6,7-tetrahydropyrazolo[4,3-c]pyridine-5-carboxamide], for which the “HBV replication inhibition >50% at 10 μM” value is “+ (‘+’ indicates >50% activity at 10 μM)”.

The experiment is the same for the next values; noted with them: Hepatitis B virus, HepG2.2.15, 144 h, 6 days treatment, encapsidated HBV DNA in supernatant by branched DNA QuantiGene assay.
As for `C[C@H]1Cc2[nH]nc(C3CCCO3)c2CN1C(=O)Nc1cccc(Cl)c1` (single isomer, unassigned) [964 D1], the EC50 was in the range of 10 to 100 nM.

Take `C[C@H]1Cc2[nH]nc(C3CCCO3)c2CN1C(=O)Nc1ccc(F)c(Cl)c1` (single isomer, unassigned) [965 D1]: the EC50 lay in the range of 10 to 100 nM.

In the case of `C[C@H]1Cc2[nH]nc(C3CCCO3)c2CN1C(=O)Nc1cccc(Br)c1` (single isomer, unassigned) [966 D1], the EC50 was in the range of 10 to 100 nM.

On to `C[C@H]1Cc2[nH]nc(C3CCCO3)c2CN1C(=O)Nc1ccnc(Br)c1F` (single isomer, unassigned) [968 D1], for which the EC50 was in the range of 500 to 1000 nM. For `C[C@H]1Cc2[nH]nc(C3CCCO3)c2CN1C(=O)Nc1ccc(F)c(C#N)c1` (single isomer, unassigned) [969 D1], the EC50 fell in the range of 100 to 500 nM. With `Cc1cccc(NC(=O)N2Cc3c(C4CCCO4)n[nH]c3C[C@@H]2C)c1` (single isomer, unassigned) [970 D1], the EC50 is 100 to 500 nM. In the case of `Cc1cc(NC(=O)N2Cc3c(C4CCCO4)n[nH]c3C[C@@H]2C)ccc1F` (single isomer, unassigned) [971 D1], the EC50 was in the range of 10 to 100 nM.

Turning to `CC1Cc2[nH]nc(C3CCC3)c2CN1C(=O)Nc1ccnc(Br)c1F` (stereo not drawn) [760 S], the EC50 was in the range of 100 to 500 nM.

Regarding `CC1Cc2[nH]nc(C3CCC3)c2CN1C(=O)Nc1cccc(C#N)c1F` (stereo not drawn) [761 R], the EC50 fell in the range of 100 to 500 nM. With `C[C@@H]1Cc2[nH]nc(C3CCCC3)c2CN1C(=O)Nc1cccc(Br)c1` [927 R], the EC50 lay within 10 to 100 nM.

Consider `C[C@H]1Cc2[nH]nc(C3CCCC3)c2CN1C(=O)Nc1cccc(Br)c1` [927 S], for which the EC50 was 10 to 100 nM. For `C[C@@H]1Cc2[nH]nc(C3CCCC3)c2CN1C(=O)Nc1ccc(F)c(Br)c1` [928 R], the EC50 is 10 to 100 nM. Same read-out and setting: with `C[C@H]1Cc2[nH]nc(C3CCCC3)c2CN1C(=O)Nc1ccc(F)c(Br)c1` [928 S] the figure was 10 to 100 nM. In the case of `C[C@@H]1Cc2[nH]nc(C3CCCC3)c2CN1C(=O)Nc1ccnc(Br)c1F` [929 R], the EC50 fell in the range of 10 to 100 nM. Turning to `C[C@H]1Cc2[nH]nc(C3CCCC3)c2CN1C(=O)Nc1ccnc(Br)c1F` [929 S], the EC50 fell in the range of 10 to 100 nM. With `C[C@@H]1Cc2[nH]nc(C3CCCC3)c2CN1C(=O)Nc1ccc(F)c(C#N)c1` [930 R], the EC50 lay in the range of 10 to 100 nM.

In the case of `C[C@H]1Cc2[nH]nc(C3CCCC3)c2CN1C(=O)Nc1ccc(F)c(C#N)c1` [930 S], the EC50 was 10 to 100 nM. The same measure, in the same setting: the figure for `Cc1cc(NC(=O)N2Cc3c(C4CCCC4)n[nH]c3C[C@H]2C)ccc1F` [931 R] is 10 to 100 nM; for `Cc1cc(NC(=O)N2Cc3c(C4CCCC4)n[nH]c3C[C@@H]2C)ccc1F` [931 S] it is 10 to 100 nM. Consider `C[C@@H]1Cc2[nH]nc(C3CCCC3)c2CN1C(=O)Nc1ccc(F)c(Cl)c1` [932 R], for which the EC50 fell in the range of 10 to 100 nM. On to `C[C@H]1Cc2[nH]nc(C3CCCC3)c2CN1C(=O)Nc1ccc(F)c(Cl)c1` [932 S], for which the EC50 fell in the range of 10 to 100 nM. For the compound `Cc1cccc(NC(=O)N2Cc3c(C4CCCC4)n[nH]c3C[C@H]2C)c1` [933 R], the EC50 was 10 to 100 nM.

Turning to `Cc1cccc(NC(=O)N2Cc3c(C4CCCC4)n[nH]c3C[C@@H]2C)c1` [933 S], the EC50 lay within 10 to 100 nM. As to `C[C@@H]1Cc2[nH]nc(C3CCCC3)c2CN1C(=O)Nc1cccc(Cl)c1` [934 R], the EC50 is 10 to 100 nM. On to `C[C@H]1Cc2[nH]nc(C3CCCC3)c2CN1C(=O)Nc1cccc(Cl)c1` [934 S], for which the EC50 fell in the range of 10 to 100 nM. As to `C[C@H]1Cc2[nH]nc(C3CCCO3)c2CN1C(=O)Nc1ccc(F)c(Cl)c1` (stereo partly drawn) [965 D2], the EC50 lay within 10 to 100 nM. On to `C[C@H]1Cc2[nH]nc(C3CCCO3)c2CN1C(=O)Nc1ccc(F)c(C#N)c1` (stereo partly drawn) [969 D2], for which the EC50 was 100 to 500 nM.

Take `Cc1cc(NC(=O)N2Cc3c(C4CCCO4)n[nH]c3C[C@@H]2C)ccc1F` (stereo partly drawn) [971 D2]: the EC50 was in the range of 100 to 500 nM.

For the compound `O=C(Nc1cccc(Cl)c1)N1CCc2[nH]nc(C3CCCC3)c2C1` [Compound 264, N-(3-chlorophenyl)-3-cyclopentyl-1,4,6,7-tetrahydro pyrazolo[4,3-c]pyridine-5-carboxamide], the EC50 was 10 to 100 nM. For the compound `CC(C)c1n[nH]c2c1CN(C(=O)Nc1cccc(Cl)c1)CC2` [Compound 267], the EC50 fell in the range of 100 to 500 nM.

On to `O=C(Nc1cccc(Cl)c1)N1CCc2[nH]nc(C3=CCOCC3)c2C1` [Compound 274], for which the EC50 fell in the range of 100 to 500 nM.

As for `O=C(Nc1cccc(Cl)c1)N1CCc2[nH]nc(C3CCOCC3)c2C1` [Compound 275], the EC50 is 100 to 500 nM. With `C=C(C)c1n[nH]c2c1CN(C(=O)Nc1cccc(Cl)c1)CC2` [Compound 336], the EC50 was in the range of 10 to 100 nM. Take `O=C(Nc1cccc(Cl)c1)N1CCc2[nH]nc(C3=CCCCC3)c2C1` [Compound 337, N-(3-chlorophenyl)-3-(cyclohexen-1-yl)-1,4,6,7-tetrahydro pyrazolo[4,3-c]pyridine-5-carboxamide]: the concentration for a half-maximal effect (EC50) lay within 10 to 100 nM. For `O=C(Nc1cccc(Cl)c1)N1CCc2[nH]nc(C3=CCCC3)c2C1` [Compound 338, N-(3-chlorophenyl)-3-(cyclopenten-1-yl)-1,4,6,7-tetrahydropyrazolo[4,3-c]pyridine-5-carboxamide], the EC50 was 10 to 100 nM. Regarding `O=C(Nc1cccc(Cl)c1)N1CCc2[nH]nc(C3CC3)c2C1` [Compound 440, N-(3-chlorophenyl)-3-cyclopropyl-1,4,6,7-tetrahydropyrazolo[4,3-c]pyridine-5-carboxamide], the concentration for a half-maximal effect (EC50) fell in the range of 100 to 500 nM. In the case of `CC1(c2n[nH]c3c2CN(C(=O)Nc2cccc(Cl)c2)CC3)CC1` [Compound 441], the EC50 fell in the range of 100 to 500 nM. Take `O=C(Nc1cccc(Cl)c1)N1CCc2[nH]nc(N3CCCC3)c2C1` [Compound 455, N-(3-chlorophenyl)-3-pyrrolidin-1-yl-1,4,6,7-tetrahydropyrazolo[4,3-c] pyridine-5-carboxamide]: the EC50 is 100 to 500 nM. Turning to `CC(C)(C)c1n[nH]c2c1CN(C(=O)Nc1cccc(Cl)c1)CC2` [Compound 515, 3-tert-butyl-N-(3-chlorophenyl)-1,4,6,7-tetrahydropyrazolo[4,3-c]pyridine-5-carboxamide], the EC50 lay in the range of 100 to 500 nM.
